SMILES strings stand for the structures.

One test addresses T1, TrkB (Homo sapiens, UniProt Q16620).
T1 construct: The kinase domain of the human TrkB receptor (amino acids 526-838); His; purchased Invitrogen; host or cells: insect cells
As to the kind of experiment: TrkB tyrosine kinase assay (33P phosphorylation of polyGluTyr by recombinant enzyme). The class given is biochemical. To be noted: recombinant kinase domain of human TrkB (amino acids 526-838), PGT substrate, 30 uM ATP. Here is the method:
The ability of compounds of the present invention to inhibit tyrosine kinase activity of TrkB may be measured using a recombinant enzyme in an assay that measures the ability of compounds to inhibit the phosphorylation of the exogenous substrate, polyGluTyr (PGT, Sigma™, 4:1). The kinase domain of the human TrkB receptor (amino acids 526-838) is expressed in insect cells as a histidine (His)-fusion protein and is commercially available from Invitrogen™. The enzyme assay is performed in a 96-well plate. Test compounds are first dissolved in dimethylsulfoxide (DMSO) and then serially-diluted in a 96-well plate. The serially-diluted compounds are transferred to the 96-well assay plate so that the final concentration of DMSO in the enzyme assay is 1.64%. All assay components are diluted in phosphorylation buffer (20 mm MOPS, 10 mM MgCl2, 1 mM EDTA, 0.015% Brij-35, 0.1 mg/ml BSA, 0.0025% Beta-Mercaptoethanol). The recombinant enzyme is added to the assay plate containing test compound and the reaction is initiated with a substrate solution containing a final concentration of 0.1 mg/ml PGT, 30 uM ATP, and 0.008 mCi/ml ^33P-gammaATP (3000 Ci/mmol) (Perkin Elmer™). After a 1 hour incubation at 30° C., the reaction is terminated with 10% TCA and incubated at 4° C. for 1 hour. The reaction is filtered onto a Unifilter® GF/C™ filter plate (Perkin Elmer™) that has been presoaked with 0.1M NaPyrophosphate. Microscint-20(Perkin Elmer™) is then added to the dried filter plate and the captured ^33P-phosphorylated PGT is quantitated on a microscintillation plate counter (TopCount•NXT™ (Perkin Elmer™)). Inhibition of the kinase enzymatic activity by the test compound is detected by a reduction in scintillation, and the concentration of compound that is required to inhibit the signal by 50% is reported as the IC50 value for the test compound.

In another test the target is T2, TrkA (Homo sapiens, UniProt P04629).
T2 construct: The kinase domain of the human TrkA receptor is expressed in Sf9 insect cells as a histidine (His)-fusion protein; His; made in house; host or cells: Sf9 insect cells (baculovirus)
T2 sequence (P04629 510-781 limits assumed): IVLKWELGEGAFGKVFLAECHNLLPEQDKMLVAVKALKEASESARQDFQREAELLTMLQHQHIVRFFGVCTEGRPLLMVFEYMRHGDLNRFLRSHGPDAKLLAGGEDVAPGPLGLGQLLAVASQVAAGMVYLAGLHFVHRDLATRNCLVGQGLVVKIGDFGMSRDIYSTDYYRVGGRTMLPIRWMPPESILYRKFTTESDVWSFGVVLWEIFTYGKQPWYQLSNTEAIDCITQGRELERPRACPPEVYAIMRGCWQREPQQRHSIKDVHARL
As to the kind of experiment: TrkA tyrosine kinase assay (33P phosphorylation of polyGluTyr by recombinant enzyme). In kind it is biochemical. As to conditions: recombinant kinase domain of human TrkA, PGT substrate, 30 uM ATP. The text has this:
The ability of compounds of the present invention to inhibit tyrosine kinase activity of TrkA may be measured using a recombinant enzyme in an assay that measures the ability of compounds to inhibit the phosphorylation of the exogenous substrate, polyGluTyr (PGT, Sigma™, 4:1). The kinase domain of the human TrkA receptor is expressed in Sf9 insect cells as a histidine (His)-fusion protein using a baculovirus expression system. The protein is purified from the lysates of these cells using an Ni-NTA affinity column. After the recombinant enzyme is purified, it is activated by incubation with cold ATP. The enzyme assay is performed in a 96-well plate. Test compounds are first dissolved in dimethylsulfoxide (DMSO) and then serially-diluted in a 96-well plate. The serially-diluted compounds are transferred to the 96-well assay plate so that the final concentration of DMSO in the enzyme assay is 1.64%. All assay components are diluted in phosphorylation buffer (20 mm MOPS, 10 mM MgCl2, 1 mM EDTA, 0.015% Brij-35, 0.1 mg/ml BSA, 0.0025% Beta-Mercaptoethanol). The recombinant enzyme is added to the assay plate containing test compound and the reaction is initiated with a substrate solution containing a final concentration of 0.1 mg/ml PGT, 30 uM ATP, and 0.008 mCi/ml ^33P-gammaATP (3000 Ci/mmol)(Perkin Elmer™) After a 1 hour incubation at 30° C., the reaction is terminated with 10% TCA and incubated at 4° C. for 1 hour. The reaction is filtered onto a Unifilter® GF/C™ filter plate (Perkin Elmer™) that has been presoaked with 0.1M NaPyrophosphate. Microscint-20 (Perkin Elmer™) is then added to the dried filter plate and the captured ^33P-phosphorylated PGT is quantitated on a microscintillation plate counter (TopCount•NXT™ (Perkin Elmer™)). Inhibition of the kinase enzymatic activity by the test compound is detected by a reduction in scintillation, and the concentration of compound that is required to inhibit the signal by 50% is reported as the IC50 value for the test compound.

T1 sequence (Q16620 510-822): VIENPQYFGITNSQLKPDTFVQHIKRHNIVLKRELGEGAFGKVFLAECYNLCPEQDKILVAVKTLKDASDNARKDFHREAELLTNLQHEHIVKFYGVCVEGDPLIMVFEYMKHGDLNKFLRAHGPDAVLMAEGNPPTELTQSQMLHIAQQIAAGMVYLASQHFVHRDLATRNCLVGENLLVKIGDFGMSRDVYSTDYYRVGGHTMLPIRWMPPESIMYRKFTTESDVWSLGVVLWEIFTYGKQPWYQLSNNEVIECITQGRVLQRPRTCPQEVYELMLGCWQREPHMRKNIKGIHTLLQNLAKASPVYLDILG

Consider `O=C(Nc1nccs1)[C@H](Cc1ccccc1)Nc1nc(Nc2cc(C3CC3)[nH]n2)c2cccn2n1` [Compound 44, (2S)-2-((4-((5-cyclopropyl-1H-pyrazol-3-yl)amino)pyrrolo[2,1-f][1,2,4]triazin-2-yl)amino)-3-phenyl-N-1,3-thiazol-2-ylpropanamide], for which the values for the IC50 on TrkB and at TrkA were 0.002 µM and 0.001 µM, respectively.
Regarding `c1cc2c(Nc3cc(C4CC4)n[nH]3)nc(N[C@H]3CCNC3)nn2c1` [Compound 41, N^4-(3-cyclopropyl-1H-pyrazol-5-yl)-N^2-((3S)-3-pyrrolidinyl)pyrrolo [2,1-f][1,2,4]triazine-2,4-diamine], the IC50 came to 0.031 µM on TrkB and 0.018 µM on TrkA.
Regarding `NC1CCCC(Nc2nc(Nc3cc(C4CC4)n[nH]3)c3cccn3n2)C1` (centres unmarked) [Compound 12, N^2-(3-aminocyclohexyl)-N^4-(3-cyclopropyl-1H-pyrazol-5-yl) pyrrolo[2,1-f][1,2,4]triazine-2,4-diamine], the IC50 at TrkB was found to be 0.035 µM; on TrkA it was 0.006 µM.
The like results for `C[C@H](Nc1nc(Nc2cc(-c3ccccc3)n[nH]2)c2cccn2n1)c1ccc(F)cc1` [Compound 28, N^2-((1S)-1-(4-fluorophenyl)ethyl)-N^4-(3-phenyl-1H-pyrazol-5-yl) pyrrolo[2,1-f][1,2,4]triazine-2,4-diamine] were, in that order, 0.0007 µM and 0.0007 µM.
`C[C@H](Nc1nc(Nc2cc(C3CC3)n[nH]2)c2cccn2n1)c1ccc(F)cc1` [Compound 2, N^4-(3-cyclopropyl-1H-pyrazol-5-yl)-N^2-((1S)-1-(4-fluorophenyl)ethyl)pyrrolo[2,1-f][1,2,4]triazine-2,4-diamine]: the half-inhibitory concentration (IC50) on TrkB came out at 0.0003 µM; on TrkA, 0.0001 µM.
The like results for `CCC(O)CNc1nc(Nc2cc(C3CC3)n[nH]2)c2cccn2n1` (centres unmarked) [Compound 40, 1-((4-((3-cyclopropyl-1H-pyrazol-5-yl)amino)pyrrolo[2,1-f][1,2,4]triazin-2-yl)amino)-2-butanol] were, in that order, 0.004 µM and 0.003 µM.
Regarding `CC(C)[C@H](CO)NC(=O)[C@H](C)Nc1nc(Nc2cc(C3CC3)n[nH]2)c2cccn2n1` [Compound 49, (2S)-2-((4-((3-cyclopropyl-1H-pyrazol-5-yl)amino)pyrrolo[2,1-f][1,2,4]triazin-2-yl)amino)-N-((1R)-1-(hydroxymethyl)-2-methylpropyl)propanamide], the values for the IC50 at TrkB and on TrkA were 0.005 µM and 0.012 µM, respectively.
Turning to `Cc1cc(Nc2nc(NC3CCCCC3)nn3cccc23)[nH]n1` [Compound 9, N^2-cyclohexyl-N^4-(5-methyl-1H-pyrazol-3-yl)pyrrolo[2,1-f] [1,2,4]triazine-2,4-diamine], the results for the IC50 on TrkB and on TrkA were 0.225 µM and 0.074 µM, respectively.
On to `O=C(CNc1nc(Nc2cc(C3CC3)n[nH]2)c2cccn2n1)Nc1nccs1` [Compound 43, 2-((4-((3-cyclopropyl-1H-pyrazol-5-yl)amino)pyrrolo[2,1-f][1,2,4]triazin-2-yl)amino)-N-1,3-thiazol-2-ylacetamide], for which the IC50 at TrkB and at TrkA was 0.0003 µM in each case.
In the case of `O[C@H]1CC[C@H](Nc2nc(Nc3cc(C4CC4)n[nH]3)c3cccn3n2)CC1` [Compound 38, trans-4-((4-((3-cyclopropyl-1H-pyrazol-5-yl)amino)pyrrolo[2,1-f] [1,2,4]triazin-2-yl)amino) cyclohexanol], the IC50 on TrkB came to 0.0009 µM; at TrkA, 0.0005 µM.

In general, IC50 refers to the concentration at which inhibition is half-maximal.

For the origin of these results see patent US7605160B2, “Pyrrolotriazine kinase inhibitors” (Bristol-Myers Squibb Company, priority 2006, dated 2009).
